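Briefly, cells in 96-well plates were exposed to five compound concentrations for 48 h, and endpoints were estimated by linear interpolation. GI50 marks 50% less growth. At the TGI there is no net growth.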
Legend:
Test in all cases: NCI anticancer screen, dose series, 48 h
[1] = test system: 786-0 renal
[2] = test system: A498 renal
[3] = test system: A549 NSCLC
[4] = test system: ACHN renal
[5] = test system: CAKI-1 renal
[6] = test system: CCRF-CEM leukemia
[7] = test system: DLD-1 colon
[8] = test system: EKVX NSCLC
[9] = test system: HCC-2998 colon
[10] = test system: HCT-116 colon
[11] = test system: HCT-15 colon
[12] = test system: HOP-18 NSCLC
[13] = test system: HOP-62 NSCLC
[14] = test system: HT29 colon
[15] = test system: K-562 leukemia
[16] = test system: KM12 colon
[17] = test system: KM20L2 colon
[18] = test system: LXFL 529 NSCLC
[19] = test system: M14 melanoma
[20] = test system: MALME-3M melanoma
[21] = test system: MOLT-4 leukemia
[22] = test system: NCI-H23 lung
[23] = test system: NCI-H460 lung
[24] = test system: NCI-H522 lung
[25] = test system: OVCAR-3 ovarian
[26] = test system: OVCAR-4 ovarian
[27] = test system: OVCAR-5 ovarian
[28] = test system: OVCAR-8 ovarian
[29] = test system: RPMI-8226 leukemia
[30] = test system: SF-268 CNS
[31] = test system: SF-295 CNS
[32] = test system: SF-539 CNS
[33] = test system: SK-MEL-2 melanoma
[34] = test system: SK-MEL-28 melanoma
[35] = test system: SK-MEL-5 melanoma
[36] = test system: SN12C renal
[37] = test system: SNB-19 CNS
[38] = test system: SNB-75 CNS
[39] = test system: SNB-78 CNS
[40] = test system: SW-620 colon
[41] = test system: TK-10 renal
[42] = test system: U251 CNS
[43] = test system: UACC-257 melanoma
[44] = test system: UO-31 renal
[45] = test system: XF 498 CNS
[46] = test system: HOP-92 NSCLC
[47] = test system: IGROV1 ovarian
[48] = test system: LOX IMVI melanoma
[49] = test system: M19-MEL melanoma
[50] = test system: NCI-H226 lung
[51] = test system: RXF 393 renal
[52] = test system: SK-OV-3 ovarian
[53] = test system: SR leukemia
[54] = test system: UACC-62 melanoma
[55] = test system: COLO 205 colon
[56] = test system: DMS 114 small cell lung
[57] = test system: DMS 273 small cell lung
[58] = test system: HL-60(TB) leukemia

COc1ccc2ccnc(Cc3ccc(OCc4ccccc4)c(OC)c3)c2c1
TGI [1]: 44.5 µM
TGI [2]: 54.5 µM
TGI [3]: 79.5 µM
TGI [4]: 76.3 µM
TGI [5]: > 100 µM
TGI [6]: 83.6 µM
TGI [7]: > 100 µM
TGI [8]: 42.7 µM
TGI [9]: 38.4 µM
TGI [10]: 29.7 µM
TGI [11]: 44.9 µM
TGI [12]: 62.5 µM
TGI [13]: 35.3 µM
TGI [14]: > 100 µM
TGI [15]: > 100 µM
TGI [16]: 37.1 µM
TGI [17]: > 100 µM
TGI [18]: 80.6 µM
TGI [19]: 33.2 µM
TGI [20]: 33.9 µM
TGI [21]: 46.6 µM
TGI [22]: 53 µM
TGI [23]: 37.8 µM
TGI [24]: 72.7 µM
TGI [25]: 34.2 µM
TGI [26]: 34 µM
TGI [27]: > 100 µM
TGI [28]: 43.5 µM
TGI [29]: 65.3 µM
TGI [30]: 70.3 µM
TGI [31]: 68.1 µM
TGI [32]: 32.3 µM
TGI [33]: 39.7 µM
TGI [34]: 33.4 µM
TGI [35]: 29.9 µM
TGI [36]: 29.8 µM
TGI [37]: > 100 µM
TGI [38]: 76.7 µM
TGI [39]: 67.6 µM
TGI [40]: > 100 µM
TGI [41]: 93.2 µM
TGI [42]: 44.6 µM
TGI [43]: 44.7 µM
TGI [44]: 19.8 µM
TGI [45]: 31.2 µM

O=C1C(C(Nc2ccccc2)c2ccccc2)=C([O-])c2ccccc21.O=C1C(C(Nc2ccccc2)c2ccccc2)=C([O-])c2ccccc21.[Ni+2] (centres undefined)
GI50 [2]: 7.57 µM
TGI [2]: > 100 µM
GI50 [3]: 4.17 µM
TGI [3]: > 100 µM
GI50 [4]: 7.81 µM
TGI [4]: > 100 µM
GI50 [5]: 28.8 µM
TGI [5]: > 100 µM
GI50 [6]: 3.96 µM
TGI [6]: > 100 µM
GI50 [7]: 4.2 µM
TGI [7]: > 100 µM
GI50 [8]: 3.33 µM
TGI [8]: 9.82 µM
GI50 [9]: 4.41 µM
TGI [9]: > 100 µM
GI50 [10]: 3.05 µM
TGI [10]: > 100 µM
GI50 [11]: 4.09 µM
TGI [11]: > 100 µM
GI50 [12]: 31.1 µM
TGI [12]: > 100 µM
GI50 [13]: 14.2 µM
TGI [13]: > 100 µM
GI50 [46]: 6.14 µM
TGI [46]: 55.6 µM
GI50 [14]: 4 µM
TGI [14]: > 100 µM
GI50 [47]: 4.9 µM
TGI [47]: > 100 µM
GI50 [15]: 3.59 µM
TGI [15]: > 100 µM
GI50 [16]: 4.01 µM
TGI [16]: > 100 µM
GI50 [17]: 24.4 µM
TGI [17]: 77.7 µM
GI50 [48]: 5.81 µM
TGI [48]: > 100 µM
GI50 [19]: 7.99 µM
TGI [19]: > 100 µM
GI50 [49]: 11 µM
TGI [49]: > 100 µM
GI50 [20]: 7.91 µM
TGI [20]: > 100 µM
GI50 [21]: 3.71 µM
TGI [21]: > 100 µM
GI50 [50]: 17.9 µM
TGI [50]: > 100 µM
GI50 [22]: 5.23 µM
TGI [22]: > 100 µM
GI50 [23]: 4.46 µM
TGI [23]: > 100 µM
GI50 [25]: 22.2 µM
TGI [25]: 66.4 µM
GI50 [26]: 16.5 µM
TGI [26]: > 100 µM
GI50 [27]: 3.55 µM
TGI [27]: 49.5 µM
GI50 [28]: 4.43 µM
TGI [28]: > 100 µM
GI50 [51]: 4.9 µM
TGI [51]: 85 µM
GI50 [30]: 3.35 µM
TGI [30]: > 100 µM
GI50 [31]: 3.69 µM
TGI [31]: > 100 µM
GI50 [32]: 3.66 µM
TGI [32]: > 100 µM
GI50 [33]: 3.32 µM
TGI [33]: 15.2 µM
GI50 [34]: 9.95 µM
TGI [34]: > 100 µM
GI50 [35]: 1.34 µM
TGI [35]: 7.45 µM
GI50 [52]: 2.66 µM
TGI [52]: 6.78 µM
GI50 [36]: 4.56 µM
TGI [36]: > 100 µM
GI50 [37]: 25.6 µM
TGI [37]: 56.7 µM
GI50 [38]: 6.34 µM
TGI [38]: 94.7 µM
GI50 [39]: 7.6 µM
TGI [39]: > 100 µM
GI50 [53]: 3.72 µM
TGI [53]: > 100 µM
GI50 [40]: 5.3 µM
TGI [40]: > 100 µM
GI50 [41]: 12.8 µM
TGI [41]: > 100 µM
GI50 [43]: 42.3 µM
TGI [43]: > 100 µM
GI50 [54]: 6.59 µM
TGI [54]: 51 µM
GI50 [44]: 11.5 µM
TGI [44]: > 100 µM
GI50 [45]: 4.9 µM
TGI [45]: 54.8 µM

C/C=C/C1(C)/C(=N\O)C(C)(CCC)C(=O)N1O (centres undefined)
TGI [1]: > 100 µM
TGI [2]: > 100 µM
TGI [3]: > 100 µM
TGI [4]: > 100 µM
TGI [5]: > 100 µM
TGI [6]: > 100 µM
TGI [55]: > 100 µM
TGI [7]: > 100 µM
TGI [56]: > 100 µM
TGI [57]: > 100 µM
TGI [8]: > 100 µM
TGI [9]: > 100 µM
TGI [10]: > 100 µM
TGI [11]: > 100 µM
TGI [58]: > 100 µM
TGI [13]: > 100 µM
TGI [46]: > 100 µM
TGI [14]: > 100 µM
TGI [47]: > 100 µM
TGI [15]: > 100 µM
TGI [16]: > 100 µM
TGI [17]: > 100 µM
TGI [48]: > 100 µM
TGI [18]: > 100 µM
TGI [19]: > 100 µM
TGI [49]: > 100 µM
TGI [20]: > 100 µM
TGI [21]: > 100 µM
TGI [50]: > 100 µM
TGI [22]: > 100 µM
TGI [23]: > 100 µM
TGI [24]: > 100 µM
TGI [25]: > 100 µM
TGI [26]: > 100 µM
TGI [27]: > 100 µM
TGI [28]: > 100 µM
TGI [29]: > 100 µM
TGI [51]: > 100 µM
TGI [31]: > 100 µM
TGI [32]: > 100 µM
TGI [33]: > 100 µM
TGI [34]: > 100 µM
TGI [35]: > 100 µM
TGI [52]: > 100 µM
TGI [36]: > 100 µM
TGI [37]: > 100 µM
TGI [38]: > 100 µM
TGI [39]: > 100 µM
TGI [53]: > 100 µM
TGI [40]: > 100 µM
TGI [41]: > 100 µM
TGI [42]: > 100 µM
TGI [43]: > 100 µM
TGI [54]: > 100 µM
TGI [44]: > 100 µM
TGI [45]: > 100 µM

From PubChem BioAssay (NCI)
